Data set [1] in a line: voltage sensitivity testing on the voltage clamped hemispherical lipid bilayer (HLB) apparatus.
Data set [2] is described as follows: water solubility / deliverability to membranes (in words). The format is physicochemical. The conditions noted are these: delivery to the membrane.

Where “and” joins values, the source holds several entries; their conditions need not be identical. Identical values can stand only once. Entries after “also recorded” stand apart in the source; their conditions may differ. Counter-ions that a name gives are not always drawn.

As for `CCCCN(CCCC)c1ccc2cc(C=Cc3cc[n+](CCCS(=O)(=O)[O-])cc3)ccc2c1` [Di-4-ANEPPS, 4-(2-(6-(dibutylamino)-2-naphthalenyl)ethenyl)-1-(3-sulfopropyl)pyridinium hydroxide inner salt, reference compound], the “voltage sensitivity / voltage dependence in words” value in data set [1] is given as “approximately linear voltage dependence”. This molecule registered a voltage sensitivity in data set [1] (approximately linear over a broad range of applied voltage) of 12 %/100 mV.

`CN(CCCCCCCCCCCCNC(=O)CCCCCCCCCCCNC(=O)COCCOCCNC(=O)CCc1c([N+](=O)[O-])cc([N+](=O)[O-])c([N-]c2c([N+](=O)[O-])cc([N+](=O)[O-])cc2[N+](=O)[O-])c1[N+](=O)[O-])c1ccc2cc(/C=C/c3cc[n+](CCOCCOCCO)cc3)ccc2c1` [PY6242]: the solubility in words result in data set [2] was “Low solubility”.

For the molecule `CN(CCCCCCCCCCCCNC(=O)CCCCCCCCCCCNC(=O)CCc1c([N+](=O)[O-])cc([N+](=O)[O-])c(Nc2c([N+](=O)[O-])cc([N+](=O)[O-])cc2[N+](=O)[O-])c1[N+](=O)[O-])c1ccc2cc(/C=C/c3cc[n+](CCCCS(=O)(=O)[O-])cc3)ccc2c1` [PY6256], the “ΔF/F per 100 mV in Dynamic Range (mV)” value is given as 39% in data set [1] (dynamic range [0, 100] mV) and 24% in data set [1] (dynamic range [−100, 0] mV).

For `CC[N+](CC)(CC)CCC[n+]1ccc(/C=C/c2ccc3cc(N(C)CCCCCCCCCCCCNC(=O)CCCCCCCCCCCNC(=O)CCc4c([N+](=O)[O-])cc([N+](=O)[O-])c(Nc5c([N+](=O)[O-])cc([N+](=O)[O-])cc5[N+](=O)[O-])c4[N+](=O)[O-])ccc3c2)cc1` [TBFQ 15], the “ΔF/F per 100 mV” value in data set [1] (no dynamic range printed, electrochromic behavior) was 8% and 8 ± 3%.

For the molecule `CC[N+](CC)(CC)CCC[n+]1ccc(/C=C/c2ccc3cc(N(C)CCOCCOCCNC(=O)CCCCCCCCCCCNC(=O)COCCOCCNC(=O)CCc4c([N+](=O)[O-])cc([N+](=O)[O-])c(Nc5c([N+](=O)[O-])cc([N+](=O)[O-])cc5[N+](=O)[O-])c4[N+](=O)[O-])ccc3c2)cc1` [TBFQ 16], in data set [1], the “voltage sensitivity / voltage dependence in words” value is “high voltage sensitivity”, the “τ-off” value worked out at 5 ± 1 ms and the “τ-on” value stood at 11 ± 2 ms. Further, the “change in fluorescence/100 mV” value in data set [1] ([…], dye on the inside, 20 ms voltage steps) is reported as 36%. Further, the “ΔF/F per 100 mV in Dynamic Range (mV)” value in data set [1] (dynamic range [−200, −100] mV) worked out at 56 ± 13%.

For the molecule `CC[N+](CC)(CC)CCC[n+]1ccc(/C=C/c2ccc3cc(N(C)CCCCCCCCCCCCNC(=O)CCCCCCCCCCCNC(=O)COCCOCCNC(=O)CCc4c([N+](=O)[O-])cc([N+](=O)[O-])c(Nc5c([N+](=O)[O-])cc([N+](=O)[O-])cc5[N+](=O)[O-])c4[N+](=O)[O-])ccc3c2)cc1` [TBFQ 17], in data set [1], the “voltage sensitivity / voltage dependence in words” value is on record as “better sensitivity than TBFQ 16; also recorded: responses in the physiological range that are larger than any previous fast VSDs”, the “τ-off” value was found to be 7 ± 2 ms and the “τ-on” value turned out to be 12 ± 2 ms. The “ΔF/F per 100 mV in Dynamic Range (mV)” value in data set [1] (dynamic range [−100, 0] mV) came to 66 ± 15%.
